Assay [1] deals with human recombinant PDE4B1 enzyme (Homo sapiens (Human), UniProt Q07343). The experiment in a line: Inhibition of PDE4B1 activity by cAMP HTRF assay. The format is biochemical. The note with it: human recombinant PDE4B1, cAMP 40 nM, pH 7.4. A digest of the protocol:
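Recombinant human PDE4B1 (4.8 U) was preincubated 10 min with compound in HBSS/HEPES/MgCl2/BSA, pH 7.4, then 40 nM cAMP was added for 60 min at RT. Remaining cAMP was read by HTRF after IBMX stop; IC50 from eight concentrations in duplicate, repeated twice.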
For orientation: Time-resolved FRET reads energy transfer from a long-lived donor to a nearby acceptor.

Assay [2] concerns human peripheral blood mononuclear cells (PBMCs). The experiment in a line: Inhibition of LPS-induced TNFα release by peripheral blood mononuclear cells (PBMCs). The format is cell-based. The note with it: PBMC, TNFα level in supernatant, LPS 1 ug/mL, 24 hours, Luminex. Here is the method: Inhibition of the compounds on proinflammatory cytokine release by peripheral blood mononuclear cells (PBMCs)
The effect of the compounds on the release characteristics of TNFa cytokines in frozen human peripheral blood mononuclear cells (PBMCs) was determined.
Fresh human PBMCs were isolated, and suspended in a fresh medium. The PBMC medium (CM) is RPMI1640 containing 10% FBS, 1% PBS, and 2 mM L-glutamine. The cells were plated at a density of 2*10^5 cells/well (100 ul). The test compound was dissolved in DMSO to form a 10 mM sample (DMSO, 100%). The compound was diluted with PBMC medium to the required concentrations. The sample (50 uL) was incubated for 1 hr with cells at 37° C., 5% CO2, after which the inducer (LPS, 1 ug/mL) was added. The inducer+vehicle (LPS+0.05% DMSO) was used as a control in this experiment. The vehicle without inducer was used as a negative control. Crisaborole was used as a positive control. After 24 hours of incubation, the supernatant was extracted and stored at −80° C. The supernatant was thawed and the TNFα level in the supernatant was measured by Luminex4-plex assay.

The next assay has as its system eczema. The note with it: patients with eczema; cited from earlier work.
The test system of another assay is PDE4. The following applies: background statement; cited from earlier work.
The next assay relates to cytokine release. The note with it: background statement; cited from earlier work.

pEC50, pIC50: −log10 of the molar value.

Consider 14 compounds from patent publication US11440886B2, “Anti-inflammatory compound, and preparation and use thereof” (E-Nitiate Biopharmaceuticals (Hangzhou) Co., Ltd., priority 2018, dated 2022).

Broadly, the pIC50 is −log10 of the IC50, conventionally taken in molar units. As usually defined, the pEC50 is −log10 of the EC50, conventionally taken in molar units.

Sequence of human recombinant PDE4B1 enzyme (Q07343 whole entry): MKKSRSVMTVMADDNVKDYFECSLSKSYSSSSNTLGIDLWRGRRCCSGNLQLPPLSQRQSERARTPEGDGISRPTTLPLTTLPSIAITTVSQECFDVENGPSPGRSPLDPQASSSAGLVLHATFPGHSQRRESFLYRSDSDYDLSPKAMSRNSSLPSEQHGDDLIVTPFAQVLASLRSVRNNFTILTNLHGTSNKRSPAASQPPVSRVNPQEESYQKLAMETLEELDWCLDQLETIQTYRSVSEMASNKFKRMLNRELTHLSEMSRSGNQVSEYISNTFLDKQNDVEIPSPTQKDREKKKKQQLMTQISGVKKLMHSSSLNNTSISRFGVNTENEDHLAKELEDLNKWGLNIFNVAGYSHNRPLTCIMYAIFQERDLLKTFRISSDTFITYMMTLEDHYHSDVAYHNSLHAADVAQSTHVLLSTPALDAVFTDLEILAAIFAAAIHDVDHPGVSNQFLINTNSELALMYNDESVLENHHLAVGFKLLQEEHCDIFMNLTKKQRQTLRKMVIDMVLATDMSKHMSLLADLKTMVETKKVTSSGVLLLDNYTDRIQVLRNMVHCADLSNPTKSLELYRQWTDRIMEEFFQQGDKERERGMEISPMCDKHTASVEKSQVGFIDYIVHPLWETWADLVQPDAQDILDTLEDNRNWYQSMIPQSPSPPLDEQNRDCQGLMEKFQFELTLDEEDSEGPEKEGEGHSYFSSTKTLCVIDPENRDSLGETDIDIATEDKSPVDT

Turning to `COc1ccc(/C=C/n2c(C)cc(=O)cc2C)cc1OC1CCSC1` (centres unmarked) [Example 80, (E)-1-((3-(tetrahydrothiophen-3-yl)oxy-4-methoxy)-styryl)-2,6-dimethylpyridin-4(1H)-one], the pIC50 in assay [1] is 8.15. In addition, the pEC50 in assay [2] is more than 8.30. On to `COc1ccc(/C(Cn2c(C)cc(=O)cc2C)=N\O)cc1OCC1CC1` [Example 38-2, (E)-1-(2-(3-cyclopropylmethoxy-4-methoxyphenyl)-2-(hydroxyimido)ethyl)-2,6-dimethylpyridin-4(1H)-one], for which, in assay [1], the pIC50 is 7.15. Take `Cc1cc(=O)cc(C)n1/C=C/c1ccc(OC(F)F)c(OCC2CC2)c1` [Example 88, (E)-1-(3-(cyclopropylmethoxy)-4-(difluoromethoxy)styryl)-2,6-dimethylpyridin-4(1H)-one]: the negative-log IC50 (pIC50) in assay [1] is 8.55. In assay [2], this compound showed a pEC50 of more than 8.30. `Cc1cc(=O)cc(C)n1/C=C/c1ccc(OC(F)F)c(O[C@@H]2CC[S+]([O-])C2)c1` (single isomer, unassigned) [Example 101-1]: the negative-log IC50 (pIC50) in assay [1] was 7.00.

As to `Cc1cc(=O)cc(C)n1/C=C/c1ccc(OC(F)F)c(OCC[S+](C)[O-])c1` (centres unmarked) [Example 94, (E)-1-(3-methylsulfoxideethoxy-4-difluoromethoxystyryl)-2,6-dimethylpyridin-4(1H)-one], the pIC50 in assay [1] is 6.86. In the case of `COc1ccc(C(=O)Cn2c(C)cc(=O)cc2C)cc1OC[S+](C)[O-]` (centres unmarked) [Example 33, 1-(2-(3-methylsulfoxidemethoxy-4-methoxyphenyl)-2-oxoethyl)-2,6-dimethylpyridin-4(1H)-one], in assay [1], the negative logarithm of the IC50 (pIC50) is 6.08. `CSCCOc1cc(/C=C/n2c(C)cc(=O)cc2C)ccc1OC(F)F` [Example 93, (E)-1-(3-methylthioethoxy-4-difluoromethoxystyryl)-2,6-dimethylpyridin-4(1H)-one]: in assay [1], the pIC50 was 7.89.

Turning to `Cc1cc(=O)cc(C)n1/C=C/c1ccc(OC(F)F)c(O[C@@H]2CCSC2)c1` [Example 100, (R,E)-1-(3-(tetrahydrothiophen-3-yl)oxy-4-difluoromethoxystyryl)-2,6-dimethylpyridin-4(1H)-one], in assay [1], the pIC50 was 8.82. Consider `N#Cc1ccc(Oc2ccc3c(c2)COB3O)cc1` [Crisaborole], for which, in the assay on eczema, the “clinical effect on eczema higher than that of the blank control” value is listed as “about 10%” and the “proportion of patients who cannot benefit” value was “about 50%”. The enzyme inhibition activity entry in the assay with PDE4 is “about 100 nM”. For the same compound, in the assay with cytokine release, the “cell activity inhibiting cytokine release” value is “about 500 nM”. As to `COc1ccc(/C=C/n2c(C)cc(=O)cc2C)cc1OCCSC` [Example 77, (E)-1-(3-methylthioethoxy-4-methoxystyryl)-2,6-dimethylpyridin-4(1H)-one], the pIC50 in assay [1] is 7.58. In addition, the negative logarithm of the EC50 (pEC50) in assay [2] was 7.96.

Turning to `COc1ccc(C(=O)Cn2c(C)cc(=O)cc2C)cc1OC1COC1` [Example 30, 1-(2-(3-(oxacyclobutan-3-yl-oxy)-4-methoxyphenyl)-2-oxoethyl)-2,6-dimethylpyridin-4(1H)-one], the pIC50 in assay [1] was 6.94. With `COc1ccc(/C=C/n2c(C)cc(=O)cc2C)cc1OCC[S+](C)[O-]` (centres unmarked) [Example 78, (E)-1-(3-methylsulfoxideethoxy-4-methoxystyryl)-2,6-dimethylpyridin-4(1H)-one], the negative logarithm of the IC50 (pIC50) in assay [1] is 7.44. `COc1ccc(/C=C/n2c(C)cc(=O)cc2C)cc1OC1CSC1` [Example 69, (E)-1-((3-(thiacyclobutan-3-yl-oxy)-4-methoxy)-styryl)-2,6-dimethylpyridin-4(1H)-one]: in assay [1], the pIC50 is 5.28.

Regarding `Cc1cc(=O)cc(C)n1/C=C/c1ccc(OC(F)F)c(OCS(C)(=O)=O)c1` [Example 92, (E)-1-(3-methylsulfonemethoxy-4-difluoromethoxy-styryl)-2,6-dimethylpyridin-4(1H)-one], the pIC50 in assay [1] is 7.03.
